Test results as given in patent US10287267B2, “Isoquinolin-3-yl carboxamides and preparation and use thereof” (Samumed, LLC, priority 2016, dated 2019).

Experiments:
[1] = biological target: recombinant DYRK1A kinase (Homo sapiens (Human), UniProt Q13627); assay: DYRK1A kinase assay (Ser/Thr 18 peptide Z-lyte FRET); assay type: biochemical; conditions: 30 μM ATP, 1 h room temperature;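 note: Read-out is the coumarin to fluorescein emission ratio, referenced to unphosphorylated (0%) and phosphorylated (100%) Ser/Thr 18 peptide controls, values from dose-response curves by non-linear regression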
[2] = test system: SW480 colon carcinoma cells; assay: Cell viability assay (CellTiter-Glo); assay type: cell-based, human; conditions: Homo sapiens; for EC50: 96 h, SW480 cells, CellTiter-Glo, four days incubation; for inhibition at 10 µM: SW480, read-out: percent inhibition at 10 μM
[3] = test system: Wnt pathway (Sp5-Luc reporter, TCF/LEF binding sites) in SW480 colon carcinoma cells; assay: Screening assay for Wnt activity: Sp5-Luc reporter gene assay; assay type: cell-based, human; conditions: Homo sapiens; Sp5-Luc reporter, SW480 cells, 36 to 48 hours;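 note: firefly luciferase luminescence read in stably transduced SW480 cells carrying the Sp5 promoter reporter with eight TCF/LEF sites, compounds given in 0.1% DMSO final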
Protocol: The screening assay for Wnt activity is described as follows.
Following incubation, 15 μl of BriteLite Plus luminescence reagent (Perkin Elmer) was added to each well of the 384-well assay plates. The plates were placed on an orbital shaker for 2 min and then luminescence was quantified using the Envision (Perkin Elmer) plate reader.

[4] = test system: Tau phosphorylation at Ser396 (pSer396); assay: Tau phosphorylation assay (pSer396 ELISA / western blot) in SH-SY5Y cells; assay type: cell-based, human; conditions: Homo sapiens; SH-SY5Y cells, overnight (16-18 h) exposure; read-out: pSer396 Tau EC50;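 note: EC50 for reduction of Tau pSer396 in lysed cells, measured by colorimetric ELISA or chemiluminescent western blot, both using the same pSer396 antibody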
IL-6 = IL-6 inhibition in LPS-stimulated human peripheral blood mononuclear cells (HTRF); assay type: cell-based; conditions: Homo sapiens, PBMC; for inhibition at 10 µM: read-out: percent value in parentheses beside EC50 >10 μM; for EC50: Table 9, huPBMCs, LPS 50 ng/mL, 22 hours, dose-response starting from 10 μM;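 for all read-outs here: IL-6 detected by HTRF with an XL665- and Cryptate-labelled anti-IL-6 antibody pair, samples run in duplicate, EC50 obtained from a four-parameter Levenberg-Marquardt curve fit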
Protocol: After 22 hour incubation, a mixture of anti-IL6 XL665 and anti-IL-6 Cryptate diluted in reconstitution buffer (Catalog #62IL6PEC, Cisbio Inc., Bedford, Mass.) was added to each well. […] All samples were processed in duplicate. […] EC50 was determined using software generated by Dotmatics Limited (Windhill Bishops Stortford Herts, UK) using the Levenberg-Marquardt 4 parameter fitting procedure with finite different gradients.

[5] = test system: α-smooth muscle actin (αSMA) positive LL29 cells; assay: Inhibition of fibrotic process: αSMA in TGF-β1 treated primary human fibroblasts from IPF patients; assay type: cell-based; conditions: Homo sapiens, Fibroblast; for EC50: 96 h, Table 8, LL29 fibroblasts from IPF patients, TGF-β1 20 ng/mL, 4 days, dose-response 10 μM to 0.94 nM; for inhibition at 10 µM: read-out: percent value in parentheses beside EC50 >10 μM;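 for all read-outs here: controls were TGF-β1 stimulated wells with DMSO vehicle (positive) and cells given DMSO alone (negative), cultured in F12 medium with 1% fetal bovine serum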
recombinant GSK3β kinase = recombinant GSK3β kinase (Homo sapiens (Human), UniProt P49841); assay: GSK3β kinase assay (Ser/Thr 09 peptide Z-lyte FRET); assay type: biochemical; conditions: 46 μM ATP, 1 h room temperature;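 note: kinase activity read as coumarin to fluorescein emission ratio, 11-point threefold dilutions from 10 µM to 0.0003 µM in duplicate, unphosphorylated and phosphorylated peptide as 0% and 100% controls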
Chain of recombinant GSK3β kinase (P49841 whole entry): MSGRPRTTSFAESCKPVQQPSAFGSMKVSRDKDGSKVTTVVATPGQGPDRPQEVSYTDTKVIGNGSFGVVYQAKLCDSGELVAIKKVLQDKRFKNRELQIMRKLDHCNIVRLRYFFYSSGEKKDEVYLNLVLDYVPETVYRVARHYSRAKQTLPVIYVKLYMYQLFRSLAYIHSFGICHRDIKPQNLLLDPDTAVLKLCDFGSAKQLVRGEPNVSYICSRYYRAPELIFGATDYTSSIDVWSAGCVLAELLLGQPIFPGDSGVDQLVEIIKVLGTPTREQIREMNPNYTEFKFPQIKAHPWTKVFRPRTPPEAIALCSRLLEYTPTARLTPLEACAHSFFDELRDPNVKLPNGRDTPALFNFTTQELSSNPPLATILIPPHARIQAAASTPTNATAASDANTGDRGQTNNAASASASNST

SMILES | EC50 [1] | EC50 [2] | EC50 [3] | EC50 [4] | inhibition at 10 µM (IL-6) | EC50 (IL-6) | EC50 [5] | EC50 (recombinant GSK3β kinase) | inhibition at 10 µM [5] | inhibition at 10 µM [2]
O=C(Nc1cc2cc(-c3cnc4n3CCNC4)ccc2cn1)C1CC(F)(F)C1 [Compound 986, 3,3-Difluoro-N-(6-(5,6,7,8-tetrahydroimidazo[1,2-a]pyrazin-3-yl)isoquinolin-3-yl)cyclobutane-1-carboxamide] | 11 nM | 3300 nM | 1380 nM | 387 nM | 13.4% | > 10000 nM | 158 nM | 21 nM |  | 
Cn1ncc(-c2ccc3cnc(NC(=O)C4CCC(F)(F)CC4)cc3c2)c1CN1CCCCC1 [Compound 300, 4,4-Difluoro-N-(6-(1-methyl-5-(piperidin-1-ylmethyl)-1H-pyrazol-4-yl)isoquinolin-3-yl)cyclohexane-1-carboxamide] | 8.2 nM | 1300 nM | 1120 nM | 222 nM |  | 2740 nM | 511 nM | 31 nM |  | 
Cn1cc(-c2ccc3cnc(NC(=O)[C@H]4CC[C@H](CO)CC4)cc3c2)cn1 [Compound 333, trans-4-(Hydroxymethyl)-N-(6-(1-methyl-1H-pyrazol-4-yl)isoquinolin-3-yl)cyclohexane-1-carboxamide] | 1.2 nM | 641 nM | 384 nM | 1100 nM |  | 790 nM | 61 nM | 60 nM |  | 
O=C(Nc1cc2cc(-c3cnn4c3CNCC4)ccc2cn1)C1CCN(CC2(C(F)(F)F)CC2)CC1 [Compound 997, N-(6-(4,5,6,7-Tetrahydropyrazolo[1,5-a]pyrazin-3-yl)isoquinolin-3-yl)-1-((1-(trifluoromethyl)cyclopropyl)methyl)piperidine-4-carboxamide] | 186 nM | 5060 nM | 3890 nM | 1300 nM | 28.6% | > 10000 nM | 567 nM | 33 nM |  | 
CC(C)CN1CCC[C@H](C(=O)Nc2cc3cc(-c4cnn(C)c4)ccc3cn2)C1 [Compound 112, (S)-1-Isobutyl-N-(6-(1-methyl-1H-pyrazol-4-yl)isoquinolin-3-yl)piperidine-3-carboxamide] | 20.6 nM | 6420 nM | 3200 nM | 1750 nM |  | 2990 nM | 546 nM | 292 nM |  | 
O=C(Nc1cc2cc(-c3cncs3)ccc2cn1)C1CNC1 [Compound 713, N-(6-(Thiazol-5-yl)isoquinolin-3-yl)azetidine-3-carboxamide] | 3.1 nM | 6980 nM | 9250 nM | 5000 nM |  | 3630 nM | > 10000 nM | 98 nM | 37.6% | 
Cn1cc(-c2ccc3cnc(NC(=O)C4CCN(C(=O)CN5CCCC5)CC4)cc3c2)cn1 [Compound 336, N-(6-(1-Methyl-1H-pyrazol-4-yl)isoquinolin-3-yl)-1-(2-(pyrrolidin-1-yl)acetyl)piperidine-4-carboxamide] | 2.9 nM | 510 nM | 395 nM | 820 nM |  | 569 nM | > 10000 nM | 83 nM | 38.4% | 
CN(CC(=O)Nc1cc2cc(-c3cnn(C)c3)ccc2cn1)C1CCC1 [Compound 302, 2-(Cyclobutyl(methyl)amino)-N-(6-(1-methyl-1H-pyrazol-4-yl)isoquinolin-3-yl)acetamide] | 7.7 nM | > 10000 nM | 3650 nM | 628 nM |  | 7700 nM | 901 nM | 38 nM |  | 34.9%
CC(C)CN1CCC(C(=O)Nc2cc3cc(-c4cnn(C)c4CN4CCCCC4)ccc3cn2)CC1 [Compound 822, 1-isobutyl-N-(6-(1-methyl-5-(piperidin-1-ylmethyl)-1H-pyrazol-4-yl)isoquinolin-3-yl)piperidine-4-carboxamide] | 4.1 nM | 708 nM | 517 nM | 247 nM |  | 3260 nM | 212 nM | 9 nM |  | 
CO[C@H]1CC[C@H](C(=O)Nc2cc3cc(-c4nnc(C)s4)ccc3cn2)CC1 [Compound 885, trans-4-Methoxy-N-(6-(5-methyl-1,3,4-thiadiazol-2-yl)isoquinolin-3-yl) cyclohexane-1-carboxamide] | 34.6 nM | 7720 nM | 4480 nM | 878 nM | 7% | > 10000 nM | 2620 nM | 46 nM |  | 
Cn1ncc(-c2ccc3cnc(NC(=O)C4CC5(C4)CN(C(=O)OC(C)(C)C)C5)cc3c2)c1CN1CCCCC1 [Compound 992, tert-Butyl 6-((6-(1-methyl-5-(piperidin-1-ylmethyl)-1H-pyrazol-4-yl)isoquinolin-3-yl)carbamoyl)-2-azaspiro[3.3]heptane-2-carboxylate] | 25.3 nM | 5600 nM | 3210 nM | 350 nM | 2.6% | > 10000 nM | 2970 nM | 14 nM |  | 
Cc1nnc(-c2ccc3cnc(NC(=O)CN4CCCCC4)cc3c2)s1 [Compound 939, N-(6-(5-Methyl-1,3,4-thiadiazol-2-yl)isoquinolin-3-yl)-2-(piperidin-1-yl) acetamide] | 13.9 nM | > 10000 nM | 2070 nM | 274 nM | 3.6% | > 10000 nM | 1140 nM | 13 nM |  | 31.6%
O=C(CN1CCCCC1)Nc1cc2cc(-c3cncs3)ccc2cn1 [Compound 760, 2-(Piperidin-1-yl)-N-(6-(thiazol-5-yl)isoquinolin-3-yl)acetamide] | 3.8 nM | 3280 nM | 3970 nM | 1200 nM |  | 1240 nM | 765 nM | 133 nM |  | 
[2H]C([2H])([2H])n1cc(-c2cc3cc(NC(=O)CN4CCCCC4)ncc3cc2F)cn1 [Compound 1015, N-(7-Fluoro-6-(1-(methyl-d3)-1H-pyrazol-4-yl)isoquinolin-3-yl)-2-(piperidin-1-yl)acetamide] | 5.8 nM | 6420 nM | 3730 nM | 523 nM |  | 3120 nM | > 10000 nM | 101 nM | 9.7% | 
CC(C)CN1CCC[C@@H](C(=O)Nc2cc3cc(-c4cn(C)nn4)ccc3cn2)C1 [Compound 483, (R)-1-Isobutyl-N-(6-(1-methyl-1H-1,2,3-triazol-4-yl)isoquinolin-3-yl) piperidine-3-carboxamide] | 11.3 nM | 7340 nM | 1870 nM | 611 nM |  | 9620 nM | 315 nM | 45 nM |  | 
O=C(CN1CCCC1)Nc1cc2cc(-c3cnn(C4CC4)c3)ccc2cn1 [Compound 286, N-(6-(1-Cyclopropyl-1H-pyrazol-4-yl)isoquinolin-3-yl)-2-(pyrrolidin-1-yl) acetamide] | 64.9 nM | 3290 nM | 3140 nM | 1150 nM |  | 1230 nM | > 10000 nM | 186 nM | 16.4% | 
Cc1ncc(-c2ccc3cnc(NC(=O)[C@H]4CC[C@H](CN5CC(F)C5)CC4)cc3c2)o1 [Compound 1018, trans-4-((3-Fluoroazetidin-1-yl)methyl)-N-(6-(2-methyloxazol-5-yl)isoquinolin-3-yl)cyclohexane-1-carboxamide] | 2.5 nM | 498 nM | 608 nM | 280 nM |  | 441 nM | 88 nM | 54 nM |  | 
CCN1CCC(C(=O)Nc2cc3cc(-c4cnn(C)c4)c(F)cc3cn2)CC1 [Compound 967, 1-Ethyl-N-(7-fluoro-6-(1-methyl-1H-pyrazol-4-yl)isoquinolin-3-yl) piperidine-4-carboxamide] | 1.9 nM | 459 nM | 4420 nM | 373 nM |  | 1130 nM | 79 nM | 46 nM |  | 
Cn1cc(-c2ccc3cnc(NC(=O)CN4CC5CC5C4)cc3c2)cn1 (stereo not drawn) [Compound 291, 2-(3-Azabicyclo[3.1.0]hexan-3-yl)-N-(6-(1-methyl-1H-pyrazol-4-yl)isoquinolin-3-yl)acetamide] | 8.2 nM | > 10000 nM | 4640 nM | 716 nM |  | 9830 nM | > 10000 nM | 43 nM | 49.6% | 24.4%
Cn1cc(-c2ccc3cnc(NC(=O)CN4CCN(CCF)CC4)cc3c2)cn1 [Compound 354, 2-(4-(2-Fluoroethyl)piperazin-1-yl)-N-(6-(1-methyl-1H-pyrazol-4-yl)isoquinolin-3-yl)acetamide] | 4.4 nM | 4990 nM | 2320 nM | 1200 nM |  | 7000 nM | 346 nM | 37 nM |  | 
